In PMC10764862, “Structural basis and selectivity of sulfatinib binding to FGFR and CSF-1R” (Communications Chemistry, 2024):
Residue numbers refer to the chain shown, from its start. Read-outs that look alike come from different tables or passages of the source.

How the values were obtained:
CSF-1R [1] = test system: CSF-1R; set-up: method as in PMID 28665128; settings: cited from earlier work
FGFR3 [2] = test system: FGFR3; set-up: method as in PMID 28665128; settings: cited from earlier work
FGFR4 [3] = test system: FGFR4; set-up: method as in PMID 28665128; settings: cited from earlier work
FGFR1 = target: T1, FGFR1 (Homo sapiens, UniProt P11362); test: Kinase inhibition assay (ADP-Glo), FGFR1; assay type: biochemical; settings: wild-type kinase domain
T1 construct: FGFR1 (residues 458–765); 6×His (PreScission-cleavable) (N, cleaved yes); made in house; host or cells: E. coli BL21 Rosetta
Experimental: (§1) FGFRs were prepared as previously described[6],[34],[44],[45]. Briefly, FGFR1 (residues 458–765), FGFR2 (residues 458–768), FGFR3 (residues 450–758) as well as FGFR4 (residues 445–753), and their mutants, FGFR1^C584S, FGFR1^V561M, FGFR2^V564I, FGFR2^V564F and FGFR3^V555M, were cloned into a modified pET28a vector in frame with an N-terminal PreScission-cleavable 6×His tag and expressed in E. coli BL21 Rosetta cells. For crystallization, FGFR1^C584S was co-expressed with untagged YOPH to induce non-phosphorylated proteins. The harvested cell pellets were lysed in a buffer containing 20 mM Tris-HCl, pH 8.0, 500 mM NaCl, 20 mM imidazole and 0.5 mM TCEP, and FGFRs were purified over Ni-NTA resin followed by enzymatic digestion with PreScission for 6×His-tag cleavage and further purified by anion exchange chromatography (GE Healthcare). For crystallization, FGFR1^C584S was further purified by gel filtration chromatography (GE Healthcare). […]
(§2) The inhibition by sulfatinib was determined by the measurement of kinase activities following the ADP-Glo assay kit (Promega)[6],[44],[45]. […] Following the addition of detection reagent to convert the generated ADP to ATP, the luminescence was detected by a plate reader (Perkin Elmer). Samples were run in triplicate and the IC50 values were calculated by log[Inhibitor] versus kinase activity ratio in GraphPad Prism 8.0.

FGFR2 = target: T2, FGFR2 (Homo sapiens, UniProt P21802); test: Kinase inhibition assay (ADP-Glo), FGFR2; assay type: biochemical; settings: wild-type kinase domain
T2 construct: FGFR2 (residues 458–768); 6×His (PreScission-cleavable) (N, cleaved yes); made in house; host or cells: E. coli BL21 Rosetta
Experimental: as §1, §2

FGFR3^V555M = target: T3, FGFR3^V555M (Homo sapiens, UniProt P22607, V555M); test: Kinase inhibition assay (ADP-Glo), FGFR3 V555M gatekeeper mutant; assay type: biochemical
T3 construct: FGFR3 (residues 450–758); 6×His (PreScission-cleavable) (N, cleaved yes); made in house; host or cells: E. coli BL21 Rosetta
Experimental: as §1, §2

CSF-1R [4] = target: T4, CSF-1R (Homo sapiens, UniProt P07333, C667T/C830S/C907T/DEL696-741); test: Kinase inhibition assay (ADP-Glo), CSF-1R; assay type: biochemical; settings: wild-type kinase domain
T4 construct: Wild-type CSF-1R (residues 542–919, △696–741, C677T, C830S, C907T); 6×His (N); made in house; host or cells: SF9 insect cells (baculovirus)
T4 sequence (P07333 with tags, fused parts or gaps C667T/DEL696-741/C830S/C907T): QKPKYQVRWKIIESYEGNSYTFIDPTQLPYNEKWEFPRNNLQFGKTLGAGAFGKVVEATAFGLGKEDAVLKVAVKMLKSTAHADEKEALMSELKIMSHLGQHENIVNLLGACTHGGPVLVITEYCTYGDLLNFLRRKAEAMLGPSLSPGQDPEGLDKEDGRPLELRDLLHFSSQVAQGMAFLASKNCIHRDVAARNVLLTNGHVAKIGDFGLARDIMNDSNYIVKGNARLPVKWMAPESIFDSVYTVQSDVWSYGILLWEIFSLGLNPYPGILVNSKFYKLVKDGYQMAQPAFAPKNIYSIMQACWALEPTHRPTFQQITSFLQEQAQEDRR
Experimental: (§3) Wild-type CSF-1R (residues 542–919, △696–741, C677T, C830S, C907T) and CSF-1R^T663I carrying an N-terminal 6×His tag was cloned into a pFastBac expression vector, and was expressed in SF9 cells using the Invitrogen Bac-to-Bac Baculovirus Expression System[41]. For crystallization, CSF-1R was co-expressed with N-terminal GST-tagged YOPH to induce non-phosphorylated proteins. The harvested cell pellets were lysed by sonication in lysis buffer consisting of 40 mM K-phosphate, pH 8.0, 200 mM NaCl, 0.5 mM PMSF, and protease inhibitor mixture (EDTA-free, Roche). After centrifugation, the clarified cell lysate was supplemented with 20 mM imidazole, and incubated with Ni-NTA beads (GE Healthcare). The Ni-NTA bead-bound CSF-1R protein was eluted using 25 mM HEPES, pH 7.0, 150 mM NaCl and 200 mM imidazole, and was subsequently supplemented with 10 mM DTT after elution. […]
as §2

FGFR1^V561M = target: T5, FGFR1^V561M (Homo sapiens, UniProt P11362, V561M); test: Kinase inhibition assay (ADP-Glo), FGFR1 V561M gatekeeper mutant; assay type: biochemical
T5 construct: FGFR1 (residues 458–765); 6×His (PreScission-cleavable) (N, cleaved yes); made in house; host or cells: E. coli BL21 Rosetta
Experimental: as §1, §2

FGFR4 [5] = target: T6, FGFR4 (Homo sapiens, UniProt P22455); test: Kinase inhibition assay (ADP-Glo), FGFR4; assay type: biochemical
T6 construct: FGFR4 (residues 445–753); 6×His (PreScission-cleavable) (N, cleaved yes); made in house; host or cells: E. coli BL21 Rosetta
Experimental: as §1, §2

FGFR3 [6] = target: T7, FGFR3 (Homo sapiens, UniProt P22607); test: Kinase inhibition assay (ADP-Glo), FGFR3; assay type: biochemical; settings: wild-type kinase domain
T7 construct: FGFR3 (residues 450–758); 6×His (PreScission-cleavable) (N, cleaved yes); made in house; host or cells: E. coli BL21 Rosetta
Experimental: as §1, §2

FGFR2^V564I = target: T8, FGFR2^V564I (Homo sapiens, UniProt P21802, V564I); test: Kinase inhibition assay (ADP-Glo), FGFR2 V564I gatekeeper mutant; assay type: biochemical
T8 construct: FGFR2 (residues 458–768); 6×His (PreScission-cleavable) (N, cleaved yes); made in house; host or cells: E. coli BL21 Rosetta
Experimental: as §1, §2

CSF-1R^T663I = target: T9, CSF-1R^T663I (Homo sapiens, UniProt P07333, C667T/C830S/C907T/DEL696-741/T663I); test: Kinase inhibition assay (ADP-Glo), CSF-1R T663I gatekeeper mutant; assay type: biochemical; settings: read-out: Kinase inhibitory activity CSF-1R^T663I IC50
T9 sequence (P07333 with tags, fused parts or gaps T663I/C667T/DEL696-741/C830S/C907T): T4 sequence (P07333 with tags, fused parts or gaps C667T/DEL696-741/C830S/C907T) with T122I
Experimental: as §3, §2

FGFR2^V564F = target: T10, FGFR2^V564F (Homo sapiens, UniProt P21802, V564F); test: Kinase inhibition assay (ADP-Glo), FGFR2 V564F gatekeeper mutant; assay type: biochemical
T10 construct: FGFR2 (residues 458–768); 6×His (PreScission-cleavable) (N, cleaved yes); made in house; host or cells: E. coli BL21 Rosetta
Experimental: as §1, §2

T6 sequence (P22455 445-753): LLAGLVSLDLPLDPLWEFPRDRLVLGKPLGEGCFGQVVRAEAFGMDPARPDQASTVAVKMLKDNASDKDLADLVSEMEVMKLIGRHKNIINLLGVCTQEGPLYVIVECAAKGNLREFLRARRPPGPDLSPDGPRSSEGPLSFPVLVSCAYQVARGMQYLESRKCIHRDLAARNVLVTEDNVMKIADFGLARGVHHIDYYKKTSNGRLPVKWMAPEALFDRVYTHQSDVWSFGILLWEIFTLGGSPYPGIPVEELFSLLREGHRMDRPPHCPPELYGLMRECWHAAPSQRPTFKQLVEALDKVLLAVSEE
T5 sequence (P11362 458-765 V561M): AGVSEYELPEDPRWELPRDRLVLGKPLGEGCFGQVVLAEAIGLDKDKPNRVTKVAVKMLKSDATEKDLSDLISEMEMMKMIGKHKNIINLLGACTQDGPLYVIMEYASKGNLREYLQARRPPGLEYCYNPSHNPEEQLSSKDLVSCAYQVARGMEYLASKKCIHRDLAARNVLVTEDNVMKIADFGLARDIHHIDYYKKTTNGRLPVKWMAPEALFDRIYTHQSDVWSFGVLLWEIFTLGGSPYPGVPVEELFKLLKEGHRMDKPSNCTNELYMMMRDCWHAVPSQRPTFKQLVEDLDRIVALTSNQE
T10 sequence (P21802 458-768 V564F): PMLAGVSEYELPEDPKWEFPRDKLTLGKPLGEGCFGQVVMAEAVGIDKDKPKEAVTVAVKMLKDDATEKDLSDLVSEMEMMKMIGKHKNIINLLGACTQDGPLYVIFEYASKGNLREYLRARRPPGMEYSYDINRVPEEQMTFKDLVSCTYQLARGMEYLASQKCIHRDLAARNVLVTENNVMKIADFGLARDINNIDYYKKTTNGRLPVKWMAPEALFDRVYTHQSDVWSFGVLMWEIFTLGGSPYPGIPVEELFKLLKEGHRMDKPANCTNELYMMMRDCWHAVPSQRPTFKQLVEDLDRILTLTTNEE
T3 sequence (P22607 450-758 V555M): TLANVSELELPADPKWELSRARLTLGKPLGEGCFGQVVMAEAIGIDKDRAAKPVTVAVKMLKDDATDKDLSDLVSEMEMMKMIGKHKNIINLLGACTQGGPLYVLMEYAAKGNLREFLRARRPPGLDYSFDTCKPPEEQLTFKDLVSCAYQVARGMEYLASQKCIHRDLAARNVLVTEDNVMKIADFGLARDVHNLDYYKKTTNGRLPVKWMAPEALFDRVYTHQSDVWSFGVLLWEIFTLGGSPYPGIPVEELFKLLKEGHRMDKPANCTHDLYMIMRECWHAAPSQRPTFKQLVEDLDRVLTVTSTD
T8 sequence (P21802 458-768 V564I): as the sequence (P21802 458-768 V564F) above, with F107I counted along it
T2 sequence (P21802 458-768): as the sequence (P21802 458-768 V564F) above, with F107V counted along it
T1 sequence (P11362 458-765): as the sequence (P11362 458-765 V561M) above, with M104V counted along it
T7 sequence (P22607 450-758): as the sequence (P22607 450-758 V555M) above, with M106V counted along it

IC50 (FGFR1) | IC50 (FGFR2) | IC50 (FGFR3^V555M; ADP-Glo, read-out: Kinase inhibitory activity FGFR3^V555M IC50) | IC50 (FGFR3^V555M; bound stated, read-out: IC50 for FGFR3^V555M) | IC50 (CSF-1R [4]) | IC50 (FGFR1^V561M; ADP-Glo, read-out: Kinase inhibitory activity FGFR1^V561M IC50) | IC50 (FGFR1^V561M; bound stated, read-out: IC50 for FGFR1^V561M) | reduction in efficacy for FGFR4 (FGFR4 [5]; FGFR4 IC50 compared with FGFR1) | IC50 (FGFR4 [5]; wild-type kinase domain, ADP-Glo) | IC50 (FGFR3 [6]) | IC50 (FGFR2^V564I; ADP-Glo, read-out: Kinase inhibitory activity FGFR2^V564I IC50) | IC50 (FGFR2^V564I; bound stated, read-out: IC50 for FGFR2^V564I) | IC50 (CSF-1R^T663I) | IC50 (FGFR2^V564F; ADP-Glo, read-out: Kinase inhibitory activity FGFR2^V564F IC50) | IC50 (FGFR2^V564F; bound stated, read-out: IC50 for FGFR2^V564F) | Structure (SMILES) | IC50 (CSF-1R [1]) | IC50 (FGFR3 [2]) | IC50 (FGFR4 [3])
 |  |  |  |  |  |  |  |  |  |  |  |  |  |  | C=CC(=O)N1CCN(CCCn2c(=O)c(-c3c(Cl)c(OC)cc(OC)c3Cl)cc3cnc(NC)nc32)CC1 [PRN1371, 8-(3-(4-Acryloylpiperazin-1-yl)propyl)-6-(2,6-dichloro-3,5-dimethoxyphenyl)-2-(methylamino)pyrido[2,3-d]pyrimidin-7(8H)-one] | 8.1 nM | […] | 19.3 nM
34 nM | 21 nM | > 5000 nM | > 2000 nM | 5 nM | > 5000 nM | > 2000 nM | approximately 26 fold | 889 nM | 28 nM | 3490 nM | > 2000 nM | 4 nM | 2970 nM | > 2000 nM | Cc1cc2cc(Oc3ccnc(Nc4cccc(CS(=O)(=O)NCCN(C)C)c4)n3)ccc2[nH]1 [sulfatinib] |  |  | 
